Experimental data as given in ChEMBL document CHEMBL5303573, “Mapping human microbiome drug metabolism by gut bacteria and their genes” (Nature, 2019).

Columns and labels:
[1] = The drug is tested on Parabacteroides merdae strain: ATCC43184 for biotransformation. The drug concentrations were measured before and after a 12-h incubation by liquid-chromatography-coupled mass spectrometry (LC–MS); details: 2 µM
[2] = The drug is tested on Clostridium scindens strain: ATCC35704 for biotransformation. The drug concentrations were measured before and after a 12-h incubation by liquid-chromatography-coupled mass spectrometry (LC–MS); details: 2 µM
[3] = The drug is tested on Anaerococcus hydrogenalis strain: DSM7454 for biotransformation. The drug concentrations were measured before and after a 12-h incubation by liquid-chromatography-coupled mass spectrometry (LC–MS); details: 2 µM
[4] = The drug is tested on Collinsella intestinalis strain: DSM13280 for biotransformation. The drug concentrations were measured before and after a 12-h incubation by liquid-chromatography-coupled mass spectrometry (LC–MS); details: 2 µM
[5] = The drug is tested on Bacteroides fragilis strain: ATCC43859 for biotransformation. The drug concentrations were measured before and after a 12-h incubation by liquid-chromatography-coupled mass spectrometry (LC–MS); details: 2 µM
[6] = bacteroides fragilis, 12 h, 2 µM
Description: The drug is tested on Bacteroides fragilis strain: 3397 (T10) for biotransformation. The drug concentrations were measured before and after a 12-h incubation by liquid-chromatography-coupled mass spectrometry (LC–MS)

[7] = limosilactobacillus reuteri cf48-3a, 12 h, 2 µM
Description: The drug is tested on Lactobacillus reuteri CF48-3A strain: BEI HM-102 for biotransformation. The drug concentrations were measured before and after a 12-h incubation by liquid-chromatography-coupled mass spectrometry (LC–MS)

[8] = akkermansia muciniphila, 12 h, 2 µM
Description: The drug is tested on Akkermansia muciniphila strain: ATCC BAA-835 for biotransformation. The drug concentrations were measured before and after a 12-h incubation by liquid-chromatography-coupled mass spectrometry (LC–MS)

[9] = The drug is tested on Bacteroides pectinophilus strain: ATCC43243 for biotransformation. The drug concentrations were measured before and after a 12-h incubation by liquid-chromatography-coupled mass spectrometry (LC–MS); details: 2 µM
[10] = bacteroides stercoris, 12 h, 2 µM
Description: The drug is tested on Bacteroides stercoris strain: ATCC43183 for biotransformation. The drug concentrations were measured before and after a 12-h incubation by liquid-chromatography-coupled mass spectrometry (LC–MS)

[11] = The drug is tested on Clostridium symbiosum strain: ATCC14940 for biotransformation. The drug concentrations were measured before and after a 12-h incubation by liquid-chromatography-coupled mass spectrometry (LC–MS); details: 2 µM
[12] = The drug is tested on Eubacterium hallii strain: DSM3353 for biotransformation. The drug concentrations were measured before and after a 12-h incubation by liquid-chromatography-coupled mass spectrometry (LC–MS); details: anaerobutyricum hallii, 2 µM
[13] = The drug is tested on Bacteroides uniformis strain: ATCC8492 for biotransformation. The drug concentrations were measured before and after a 12-h incubation by liquid-chromatography-coupled mass spectrometry (LC–MS); details: 2 µM
[14] = The drug is tested on Bacteroides coprophilus strain: DSM18228 for biotransformation. The drug concentrations were measured before and after a 12-h incubation by liquid-chromatography-coupled mass spectrometry (LC–MS); details: 2 µM
[15] = The drug is tested on Alistipes indistinctus strain: DSM22520 for biotransformation. The drug concentrations were measured before and after a 12-h incubation by liquid-chromatography-coupled mass spectrometry (LC–MS); details: 2 µM
[16] = bacteroides thetaiotaomicron, 12 h, 2 µM
Description: The drug is tested on Bacteroides thetaiotaomicron strain: 7330 for biotransformation. The drug concentrations were measured before and after a 12-h incubation by liquid-chromatography-coupled mass spectrometry (LC–MS)

[17] = anaerostipes sp., 12 h, 2 µM
Description: The drug is tested on Anaerostipes sp. strain: fecal isolate for biotransformation. The drug concentrations were measured before and after a 12-h incubation by liquid-chromatography-coupled mass spectrometry (LC–MS)

[18] = The drug is tested on Subdoligranulum variabile strain: DSM15176 for biotransformation. The drug concentrations were measured before and after a 12-h incubation by liquid-chromatography-coupled mass spectrometry (LC–MS); details: 2 µM
[19] = roseburia intestinalis, 12 h, 2 µM
Description: The drug is tested on Roseburia intestinalis strain: L1-82 for biotransformation. The drug concentrations were measured before and after a 12-h incubation by liquid-chromatography-coupled mass spectrometry (LC–MS)

[20] = The drug is tested on Blautia luti strain: DSM14534 for biotransformation. The drug concentrations were measured before and after a 12-h incubation by liquid-chromatography-coupled mass spectrometry (LC–MS); assay type: ADME; parameters: dose 2 uM, timepoint 0 vs 12 hours; details: 2 µM

Row | Bacterial Biotransformation [1] | Bacterial Biotransformation [2] | Bacterial Biotransformation [3] | Bacterial Biotransformation [4] | Bacterial Biotransformation [5] | Bacterial Biotransformation [6] | Bacterial Biotransformation [7] | Bacterial Biotransformation [8] | Bacterial Biotransformation [9] | Bacterial Biotransformation [10] | Bacterial Biotransformation [11] | Bacterial Biotransformation [12] | Bacterial Biotransformation [13] | Bacterial Biotransformation [14] | Bacterial Biotransformation [15] | Bacterial Biotransformation [16] | Bacterial Biotransformation [17] | Bacterial Biotransformation [18] | Bacterial Biotransformation [19] | Bacterial Biotransformation [20] | SMILES
1 | – | Compound metabolized | Compound NOT metabolized | Compound NOT metabolized | Compound metabolized | – | – | Compound NOT metabolized | – | Compound metabolized | Compound NOT metabolized | Compound NOT metabolized | Compound metabolized | Compound NOT metabolized | Compound NOT metabolized | – | Compound NOT metabolized | – | – | Compound NOT metabolized | C[C@@H]1C[C@H]2[C@@H]3CCC4=CC(=O)C=C[C@]4(C)[C@@]3(F)[C@@H](O)C[C@]2(C)[C@@]1(O)C(=O)CO [DEXAMETHASONE]
2 | Compound NOT metabolized | Compound NOT metabolized | Compound NOT metabolized | Compound NOT metabolized | – | Compound NOT metabolized | – | Compound NOT metabolized | Compound NOT metabolized | Compound NOT metabolized | Compound NOT metabolized | Compound NOT metabolized | Compound NOT metabolized | Compound NOT metabolized | – | Compound NOT metabolized | Compound NOT metabolized | Compound NOT metabolized | – | Compound NOT metabolized | CC12CC3CC(C)(C1)CC(N)(C3)C2 [MEMANTINE]
3 | – | Compound NOT metabolized | Compound NOT metabolized | Compound NOT metabolized | Compound metabolized | – | Compound NOT metabolized | Compound NOT metabolized | Compound metabolized | – | Compound NOT metabolized | Compound NOT metabolized | Compound metabolized | – | – | – | Compound NOT metabolized | – | Compound NOT metabolized | Compound NOT metabolized | Cc1cc(C)cc(OCC2CNC(=O)O2)c1 (stereo unspecified) [METAXALONE]
4 | Compound NOT metabolized | Compound NOT metabolized | Compound NOT metabolized | Compound NOT metabolized | Compound NOT metabolized | Compound NOT metabolized | Compound NOT metabolized | Compound NOT metabolized | Compound NOT metabolized | Compound NOT metabolized | Compound NOT metabolized | Compound NOT metabolized | Compound NOT metabolized | – | – | Compound NOT metabolized | Compound NOT metabolized | – | Compound NOT metabolized | Compound NOT metabolized | CC(C)(C)NCC(O)COc1cccc2c1CC(O)C(O)C2 (stereo unspecified) [NADOLOL]
5 | Compound NOT metabolized | Compound NOT metabolized | Compound NOT metabolized | Compound NOT metabolized | Compound NOT metabolized | Compound NOT metabolized | Compound NOT metabolized | – | Compound NOT metabolized | Compound NOT metabolized | Compound NOT metabolized | Compound NOT metabolized | Compound NOT metabolized | Compound NOT metabolized | Compound NOT metabolized | Compound NOT metabolized | Compound NOT metabolized | – | Compound NOT metabolized | Compound NOT metabolized | CCc1nc(N)nc(N)c1-c1ccc(Cl)cc1 [PYRIMETHAMINE]
6 | Compound NOT metabolized | – | Compound NOT metabolized | Compound NOT metabolized | Compound NOT metabolized | Compound NOT metabolized | Compound NOT metabolized | Compound NOT metabolized | – | Compound NOT metabolized | – | Compound NOT metabolized | Compound NOT metabolized | Compound NOT metabolized | Compound NOT metabolized | Compound NOT metabolized | Compound NOT metabolized | – | Compound NOT metabolized | Compound NOT metabolized | COC(=O)[C@H]1[C@H]2C[C@@H]3c4[nH]c5cc(OC)ccc5c4CCN3C[C@H]2C[C@@H](OC(=O)c2cc(OC)c(OC)c(OC)c2)[C@@H]1OC [RESERPINE]

Second part, the compound before the results:

Row | SMILES | Bacterial Biotransformation [1] | Bacterial Biotransformation [2] | Bacterial Biotransformation [3] | Bacterial Biotransformation [4] | Bacterial Biotransformation [5] | Bacterial Biotransformation [6] | Bacterial Biotransformation [7] | Bacterial Biotransformation [8] | Bacterial Biotransformation [9] | Bacterial Biotransformation [10] | Bacterial Biotransformation [11] | Bacterial Biotransformation [12] | Bacterial Biotransformation [13] | Bacterial Biotransformation [14] | Bacterial Biotransformation [15] | Bacterial Biotransformation [16] | Bacterial Biotransformation [17] | Bacterial Biotransformation [18] | Bacterial Biotransformation [19] | Bacterial Biotransformation [20]
7 | CCCCC(=O)N(Cc1ccc(-c2ccccc2-c2nnn[nH]2)cc1)[C@H](C(=O)O)C(C)C | Compound NOT metabolized | Compound NOT metabolized | Compound NOT metabolized | Compound NOT metabolized | Compound metabolized | Compound NOT metabolized | Compound NOT metabolized | Compound NOT metabolized | Compound NOT metabolized | Compound NOT metabolized | Compound NOT metabolized | Compound NOT metabolized | Compound metabolized | Compound NOT metabolized | Compound NOT metabolized | Compound metabolized | Compound NOT metabolized | – | – | –
8 | CCCCC(=O)O[C@]1(C(=O)CO)[C@@H](C)C[C@H]2[C@@H]3CCC4=CC(=O)C=C[C@]4(C)[C@@]3(F)[C@@H](O)C[C@@]21C [BETAMETHASONE VALERATE] | – | Compound metabolized | Compound NOT metabolized | Compound NOT metabolized | – | – | Compound metabolized | – | Compound NOT metabolized | Compound metabolized | Compound NOT metabolized | – | Compound metabolized | – | – | Compound metabolized | Compound NOT metabolized | Compound metabolized | Compound NOT metabolized | –
9 | C=C[C@H]1CN2CC[C@H]1C[C@H]2[C@H](O)c1ccnc2ccc(OC)cc12.C=C[C@H]1CN2CC[C@H]1C[C@H]2[C@H](O)c1ccnc2ccc(OC)cc12.O.O.O=S(=O)(O)O [QUININE SULFATE] | – | – | Compound NOT metabolized | Compound NOT metabolized | – | – | Compound NOT metabolized | Compound NOT metabolized | Compound NOT metabolized | Compound NOT metabolized | – | Compound NOT metabolized | Compound NOT metabolized | Compound NOT metabolized | – | Compound NOT metabolized | Compound NOT metabolized | – | Compound NOT metabolized | Compound NOT metabolized
10 | O=C(O[C@H]1C[C@H]2CC[C@@H](C1)[N+]21CCCC1)C(O)(c1ccccc1)c1ccccc1.[Cl-] [TROSPIUM CHLORIDE] | Compound NOT metabolized | Compound NOT metabolized | Compound NOT metabolized | Compound NOT metabolized | – | Compound NOT metabolized | Compound NOT metabolized | Compound NOT metabolized | – | Compound NOT metabolized | Compound NOT metabolized | Compound NOT metabolized | Compound NOT metabolized | – | – | Compound NOT metabolized | Compound NOT metabolized | Compound NOT metabolized | Compound NOT metabolized | Compound NOT metabolized
